Among the data in patent US8574563B2 (Bristol-Myers Squibb Company, priority 2006, dated 2013) are EC50 values, retold here.

Structures are written as SMILES.

The subject of this test is HCV 1b-377-neo replicon cells. Kind of test: HCV replicon assay, HCV 1b-377-neo replicon cells (1b FRET). The format is cell-based, Hepatitis C virus genotype 1b. The note with it: Hepatitis C virus, HCV 1b-377-neo replicon cells; HCV 1b genotype; read-out: EC50 range against HCV 1b (Table 2, Range). The protocol: An HCV Replion assay was utilized in the present disclosure, and was prepared, conducted and validated as described in commonly owned PCT/US2006/022197 and in O'Boyle et. al. Antimicrob Agents Chemother. 2005 April; 49(4):1346-53.
HCV 1b-377-neo replicon cells were used to test the currently described compound series as well as cells resistant to compound A due to a Y2065H mutation in NS5A (described in application PCT/US2006/022197). The compounds tested were determined to have more than 10-fold less inhibitory activity on cells resistant to compound A than wild-type cells indicating a related mechanism of action between the two compound series. Thus, the compounds of the present disclosure can be effective to inhibit the function of the HCV NS5A protein and are understood to be as effective in combinations as previously described in application PCT/US2006/022197 and commonly owned WO/04014852. Further, the compounds of the present disclosure can be effective against the HCV 1b genotype. It should also be understood that the compounds of the present disclosure can inhibit multiple genotypes of HCV. […] In one embodiment compounds of the present disclosure are active against the 1a, 1b, 2a, 2b, 3a, 4a, and 5a genotypes.
Background: A replicon is a self-replicating genome or part of one, used to study replication in cells.

The EC50 is the concentration at which the effect is half-maximal. Turning to `CCN(C)[C@@H](C(=O)N1CCC[C@H]1c1ncc(-c2ccc(-c3ccc(-c4cnc([C@@H]5CCCN5C(=O)[C@@H](c5ccccc5)N(C)CC)[nH]4)cc3)cc2)[nH]1)c1ccccc1` [Example 22, (1R,1′R)-2,2′-(4,4′-biphenyldiylbis(1H-imidazole-5,2-diyl(2S)-2,1-pyrrolidinediyl))bis(N-ethyl-N-methyl-2-oxo-1-phenylethanamine)], the concentration for a half-maximal effect (EC50) lay within 0.001 to 0.999 nM.

With `O=CN[C@@H](C(=O)N1CCC[C@H]1c1ncc(-c2ccc(-c3ccc(-c4cnc([C@@H]5CCCN5C(=O)[C@H](NC=O)c5ccccc5)[nH]4)cc3)cc2)[nH]1)c1ccccc1` [Example 23, N,N′-(4,4′-biphenyldiylbis(1H-imidazole-5,2-diyl(2S)-2,1-pyrrolidinediyl((1R)-2-oxo-1-phenyl-2,1-ethanediyl)))diformamide], the EC50 fell in the range of 0.001 to 0.999 nM.

For `O=C(N1CCC[C@H]1c1ncc(-c2ccc(-c3ccc(-c4cnc([C@@H]5CCCN5C(=O)C5(O)CC5)[nH]4)cc3)cc2)[nH]1)C1(O)CC1` [Example 24, 1,1′-(4,4′-biphenyldiylbis(1H-imidazole-5,2-diyl(2S)-2,1-pyrrolidinediylcarbonyl))dicyclopropanol], the half-maximal effective concentration (EC50) was in the range of 1 to 99 nM.

`O=C([C@@H](c1ccccc1)N1CCCCC1)N1CCC[C@H]1c1ncc(-c2ccc(-c3ccc(-c4cnc([C@@H]5CCCN5C(=O)[C@@H](c5ccccc5)N5CCCCC5)[nH]4)cc3)cc2)[nH]1` [Example 24-1, 1,1′-(4,4′-biphenyldiylbis(1H-imidazole-5,2-diyl(2S)-2,1-pyrrolidinediyl((1R)-2-oxo-1-phenyl-2,1-ethanediyl)))dipiperidine]: the EC50 is 0.001 to 0.999 nM.

Turning to `CC1(O)CCN([C@@H](C(=O)N2CCC[C@H]2c2ncc(-c3ccc(-c4ccc(-c5cnc([C@@H]6CCCN6C(=O)[C@@H](c6ccccc6)N6CCC(C)(O)CC6)[nH]5)cc4)cc3)[nH]2)c2ccccc2)CC1` [Example 24-2, 1,1′-(4,4′-biphenyldiylbis(1H-imidazole-5,2-diyl(2S)-2,1-pyrrolidinediyl((1R)-2-oxo-1-phenyl-2,1-ethanediyl)))bis(4-methyl-4-piperidinol)], the EC50 fell in the range of 0.001 to 0.999 nM.

On to `COC(=O)N[C@@H](C(=O)N1CCC[C@H]1c1ncc(-c2ccc(-c3ccc(-c4cnc([C@@H]5CCCN5C(=O)[C@H](NC(=O)OC)c5ccccc5Cl)[nH]4)cc3)cc2)[nH]1)c1ccccc1Cl` [Example 24-3, dimethyl (4,4′-biphenyldiylbis(1H-imidazole-5,2-diyl(2S)-2,1-pyrrolidinediyl((1R)-1-(2-chlorophenyl)-2-oxo-2,1-ethanediyl)))biscarbamate], for which the EC50 was in the range of 0.001 to 0.999 nM.

For `CN(C)C(=O)N[C@@H](C(=O)N1CCC[C@H]1c1nc(-c2ccc(-c3ccc(-c4c[nH]c([C@@H]5CCCN5C(=O)[C@H](NC(=O)N(C)C)c5ccccc5)n4)cc3)cc2)c[nH]1)c1ccccc1` [Example 24-4a, N′,N′′′-(4,4′-biphenyldiylbis(1H-imidazole-4,2-diyl(2S)-2,1-pyrrolidinediyl((1R)-2-oxo-1-phenyl-2,1-ethanediyl)))bis(1,1-dimethylurea)], the EC50 was in the range of 0.001 to 0.999 nM.

`CNC(=O)N[C@@H](C(=O)N1CCC[C@H]1c1ncc(-c2ccc(-c3ccc(-c4cnc([C@@H]5CCCN5C(=O)[C@H](NC(=O)NC)c5ccccc5)[nH]4)cc3)cc2)[nH]1)c1ccccc1` [Example 24-4b, N′,N′′′-(4,4′-biphenyldiylbis(1H-imidazole-5,2-diyl(2S)-2,1-pyrrolidinediyl((1R)-2-oxo-1-phenyl-2,1-ethanediyl)))bis(1-methylurea)]: the EC50 was 1 to 99 nM.

Consider `CCNC(=O)N[C@@H](C(=O)N1CCC[C@H]1c1ncc(-c2ccc(-c3ccc(-c4cnc([C@@H]5CCCN5C(=O)[C@H](NC(=O)NCC)c5ccccc5)[nH]4)cc3)cc2)[nH]1)c1ccccc1` [Example 24-4c, N′,N′′′-(4,4′-biphenyldiylbis(1H-imidazole-5,2-diyl(2S)-2,1-pyrrolidinediyl((1R)-2-oxo-1-phenyl-2,1-ethanediyl)))bis(1-ethylurea)], for which the concentration for a half-maximal effect (EC50) is 0.001 to 0.999 nM.

Regarding `O=C(NC1CCCC1)N[C@@H](C(=O)N1CCC[C@H]1c1ncc(-c2ccc(-c3ccc(-c4cnc([C@@H]5CCCN5C(=O)[C@H](NC(=O)NC5CCCC5)c5ccccc5)[nH]4)cc3)cc2)[nH]1)c1ccccc1` [Example 24-4d, N′,N′′′-(4,4′-biphenyldiylbis(1H-imidazole-5,2-diyl(2S)-2,1-pyrrolidinediyl((1R)-2-oxo-1-phenyl-2,1-ethanediyl)))bis(1-cyclopentylurea)], the 50% effective concentration (EC50) lay within 0.001 to 0.999 nM.

Turning to `CN(CC(=O)N1CCC[C@H]1c1ncc(-c2ccc(-c3ccc(-c4cnc([C@@H]5CCCN5C(=O)CN(C)Cc5ccccc5)[nH]4)cc3)cc2)[nH]1)Cc1ccccc1` [Example 24-4e, 2,2′-(4,4′-biphenyldiylbis(1H-imidazole-5,2-diyl(2S)-2,1-pyrrolidinediyl))bis(N-benzyl-N-methyl-2-oxoethanamine)], the EC50 fell in the range of 1 to 99 nM.

Consider `C[C@@H](C(=O)N1CCC[C@H]1c1ncc(-c2ccc(-c3ccc(-c4cnc([C@@H]5CCCN5C(=O)[C@H](C)N(C)Cc5ccccc5)[nH]4)cc3)cc2)[nH]1)N(C)Cc1ccccc1` [Example 24-4f, (2S,2′S)-1,1′-(4,4′-biphenyldiylbis(1H-imidazole-5,2-diyl(2S)-2,1-pyrrolidinediyl))bis(N-benzyl-N-methyl-1-oxo-2-propanamine)], for which the concentration for a half-maximal effect (EC50) lay within 100 to 999 nM.

With `CC(C)C(C(=O)N1CCC[C@H]1c1ncc(-c2ccc(-c3ccc(-c4cnc([C@@H]5CCCN5C(=O)C(C(C)C)N(C)Cc5ccccc5)[nH]4)cc3)cc2)[nH]1)N(C)Cc1ccccc1` (stereo partly drawn) [Example 24-4g, 1,1′-(4,4′-biphenyldiylbis(1H-imidazole-5,2-diyl(2S)-2,1-pyrrolidinediyl))bis(N-benzyl-N,3-dimethyl-1-oxo-2-butanamine)], the EC50 is 1000 to 10000 nM.

Take `O=C(C(c1ccccc1)N1CCC(O)CC1)N1CCC[C@H]1c1ncc(-c2ccc(-c3ccc(-c4cnc([C@@H]5CCCN5C(=O)C(c5ccccc5)N5CCC(O)CC5)[nH]4)cc3)cc2)[nH]1` (stereo partly drawn) [Example 24-4h, 1,1′-(4,4′-biphenyldiylbis(1H-imidazole-5,2-diyl(2S)-2,1-pyrrolidinediyl(2-oxo-1-phenyl-2,1-ethanediyl)))di(4-piperidinol)]: the half-maximal effective concentration (EC50) lay within 0.001 to 0.999 nM.

As for `CN(C)[C@@H](C(=O)N1C[C@@H](F)C[C@H]1c1ncc(-c2ccc(-c3ccc(-c4cnc([C@@H]5C[C@H](F)CN5C(=O)[C@@H](c5ccccc5)N(C)C)[nH]4)cc3)cc2)[nH]1)c1ccccc1` [Example 24-5], the concentration for a half-maximal effect (EC50) lay within 0.001 to 0.999 nM.

Turning to `CCN(CC)[C@@H](C(=O)N1C[C@@H](F)C[C@H]1c1ncc(-c2ccc(-c3ccc(-c4cnc([C@@H]5C[C@H](F)CN5C(=O)[C@@H](c5ccccc5)N(CC)CC)[nH]4)cc3)cc2)[nH]1)c1ccccc1` [Example 24-6], the concentration giving a half-maximal response (EC50) was 0.001 to 0.999 nM.

Consider `O=C([C@@H](c1ccccc1)N1CCCCC1)N1C[C@@H](F)C[C@H]1c1ncc(-c2ccc(-c3ccc(-c4cnc([C@@H]5C[C@H](F)CN5C(=O)[C@@H](c5ccccc5)N5CCCCC5)[nH]4)cc3)cc2)[nH]1` [Example 24-7], for which the EC50 lay within 0.001 to 0.999 nM.

Regarding `O=C([C@@H](c1ccccc1)N1CCCCC1)N1CC(F)(F)C[C@H]1c1nc(-c2ccc(-c3ccc(-c4cnc([C@@H]5CC(F)(F)CN5C(=O)[C@@H](c5ccccc5)N5CCCCC5)[nH]4)cc3)cc2)c[nH]1` [Example 24-8, 1,1′-(4,4′-biphenyldiylbis(1H-imidazol-4,2-diyl((2S)-4,4-difluoro-2,1-pyrrolidinediyl)((1R)-2-oxo-1-phenyl-2,1-ethanediyl)))dipiperidine], the 50% effective concentration (EC50) was 0.001 to 0.999 nM.
